Assay results as given in patent US20220298115A1, “SMALL MOLECULE INHIBITORS OF ACETYL COENZYME A SYNTHETASE SHORT CHAIN 2 (ACSS2)” (Curadev Pharma Pvt. Ltd., priority 2019, published 2022).

Legend:
[1] = test system: [14C] acetate incorporation in macromolecules, BT474 cells; assay: Cell based [14C] acetate incorporation assay; conditions: Homo sapiens, BT-474, 3 h at 37° C., read-out: Cellular Activity (IC50 range)
Procedure: Cell Based [^14C] Acetate Incorporation Assay
In the cellular assay, ACSS2 inhibitors were screened against [^14C] acetate incorporation in macromolecules. 4×10^4 BT474 cells were plated in 96 well plates in growth media composed of DMEM & 10% FBS and incubated overnight in a 37° C., 5% CO2 incubator. The following day the cells were washed in HBSS and the assay was performed in 100 μl of HBSS. 50 μl of 4× compound in 4% DMSO was added to the cells and preincubated for 10 min. at 37° C. 50 μl of acetate solution (0.1 μCi ^14C acetate+10 μM ^12C acetate) was added to each well of the plate and incubated for 3 h in a 37° C., 5% CO2 incubator. Following incubation, cells were harvested with water on polyethylene imine (PEI) presoaked GF/C filtermat, air dried and radioactive count were recorded in Trilux micro beta Liquid Scintillation Counter (PerkinElmer).

human ACSS2 = biological target: T1, human ACSS2 (Homo sapiens, UniProt Q9NR19); assay: ACSS2 enzyme assay (acetyl-CoA formation, LC-MS/MS); format: biochemical; conditions: cytosolic fraction of BT474 cells as ACSS2 source; 100 μM acetate, CoA and ATP; 2 h at 25° C.; read-out: Enzyme Activity (IC50 range)
T1 construct: The cytosolic fraction of BT474 cells was used as a source of the ACSS2 enzyme; endogenous in cells; host or cells: BT474 cells (cytosolic fraction)
T1 sequence (Q9NR19 whole entry): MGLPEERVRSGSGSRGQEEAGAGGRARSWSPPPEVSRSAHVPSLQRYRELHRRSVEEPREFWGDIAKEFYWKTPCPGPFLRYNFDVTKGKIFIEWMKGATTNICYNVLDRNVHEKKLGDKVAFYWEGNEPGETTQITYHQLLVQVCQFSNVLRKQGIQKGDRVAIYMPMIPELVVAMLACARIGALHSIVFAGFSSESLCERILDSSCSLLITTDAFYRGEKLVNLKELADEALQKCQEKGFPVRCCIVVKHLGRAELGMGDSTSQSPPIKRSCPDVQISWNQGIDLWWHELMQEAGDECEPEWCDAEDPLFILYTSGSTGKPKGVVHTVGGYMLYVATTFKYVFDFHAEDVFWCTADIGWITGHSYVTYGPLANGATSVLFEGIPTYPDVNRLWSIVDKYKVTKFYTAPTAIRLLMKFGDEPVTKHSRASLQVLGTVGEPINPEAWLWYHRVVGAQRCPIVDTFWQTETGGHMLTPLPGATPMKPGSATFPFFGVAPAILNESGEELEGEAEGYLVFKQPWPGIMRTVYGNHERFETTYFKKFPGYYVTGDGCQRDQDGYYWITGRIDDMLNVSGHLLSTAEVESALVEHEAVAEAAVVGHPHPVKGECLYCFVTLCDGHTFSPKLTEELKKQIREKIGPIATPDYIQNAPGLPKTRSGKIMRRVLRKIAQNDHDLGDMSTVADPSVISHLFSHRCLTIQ
Procedure: Novel compounds were screened in a human ACSS2 enzyme assay. Briefly, the ACSS2 enzyme reaction was monitored by directly measuring acetyl-CoA formation. The cytosolic fraction of BT474 cells was used as a source of the ACSS2 enzyme. A short protocol for this assay is provided below.
Preparation of Cytosolic Fraction from BT474 Cells
9×10^6 cells were harvested by trypsinization followed by centrifugation. The cell pellet was washed with PBS and dissolved in 500 μl STM buffer (50 mM Tris-HCl pH7.4, 250 mM sucrose, 5 mM MgCl2 & protease-phosphatase inhibitor cocktail) and homogenized at 600-1000 rpm for 1 min. on ice followed by incubation for 30 min. with intermittent vortexing. Supernatant was collected by centrifugation at 800 g for 15 min. at 4° C. Cytosolic fraction was prepared by further centrifugation of the supernatant at 12000 g for 15 min. at 4° C. Total protein content of the cytosolic fraction was estimated & diluted to 1 mg/ml concentration in storage buffer (25 mM Tris-HCl pH7.4, 1 mM MgCl2, 1 mM DTT & 10% glycerol) and stored at −80° C. for further use.
100 ng of cytosolic fraction in buffer composed of 25 mM Tris-HCl pH7.4 1 mM MgCl2, 1 mM DTT & 0.05% Tween20 was preincubated with desired concentrations of novel compounds for 5 min. maintaining 1% DMSO. Reaction was started with addition of substrate mix (100 μM of acetate, CoA and ATP) and incubated for 2 h at 25° C. with constant shaking at 500 rpm. Post incubation the reaction was terminated by addition of 10% TCA followed by 5 fold dilution in water. The reaction mixture was centrifuged at 800 g for 10 min. at RT and acetyl-CoA detected in supernatant by LC-MS/MS (QTrap5500 ABSCIEX).

Compound	IC50 [1]	IC50 (human ACSS2)
CCC(O)CNC(=O)Nc1ccc2nc(-c3ccc(F)cc3)c(-c3ccc(F)cc3)cc2c1 (centres unmarked) [Example 17, 1-(2,3-bis(4-fluorophenyl)quinolin-6-yl)-3-(2-hydroxybutyl) urea]	< 100 nM	< 100 nM
CC[C@@H](O)CNC(=O)Nc1ccc2nc(-c3ccccc3F)c(-c3ccccc3F)cc2c1 [Example 20, (R)-1-(2,3-Bis(2-fluorophenyl)quinolin-6-yl)-3-(2-hydroxybutyl)urea]	< 100 nM	< 100 nM
CCC(O)CNC(=O)Nc1ccc2nc(-c3cccc(C(C)=O)c3)c(-c3cccc(C(C)=O)c3)cc2c1 (centres unmarked) [Example 21, 1-(2,3-bis(3-acetylphenyl)quinolin-6-yl)-3-(2-hydroxybutyl) urea]	≤ 10000 nM	≤ 10000 nM
CCC(O)CNC(=O)Nc1ccc2nc(-c3cn[nH]c3)c(-c3cn[nH]c3)cc2c1 (centres unmarked) [Example 22, 1-(2,3-di(1H-pyrazol-4-yl)quinolin-6-yl)-3-(2-hydroxybutyl) urea]	> 10000 nM	≤ 10000 nM
CCC(O)CNC(=O)Nc1ccc2nc(-c3ccncc3)c(-c3ccncc3)cc2c1 (centres unmarked) [Example 24, 1-(2,3-di(pyridin-4-yl)quinolin-6-yl)-3-(2-hydroxybutyl) urea]	≤ 10000 nM	≤ 1000 nM
CCC(O)CNC(=O)Nc1ccc2nc(-c3cccc(F)c3)c(-c3cccc(F)c3)cc2c1 (centres unmarked) [Example 25, 1-(2,3-bis(3-fluorophenyl)quinolin-6-yl)-3-(2-hydroxybutyl) urea]	≤ 1000 nM	≤ 1000 nM
CC[C@H](O)CNC(=O)Nc1ccc2nc(-c3ccccc3F)c(-c3ccccc3F)cc2c1 [Example 28, (S)-1-(2,3-bis(2-fluorophenyl)quinolin-6-yl)-3-(2-hydroxybutyl) urea]	< 100 nM	< 100 nM
CCC(O)CNC(=O)Nc1ccc2nc(-c3ccnc(O)c3)c(-c3ccnc(O)c3)cc2c1 (centres unmarked) [Example 29, 1-(2,3-bis(2-hydroxypyridin-4-yl)quinolin-6-yl)-3-(2-hydroxybutyl) urea]	> 10000 nM	> 10000 nM
CC[C@H](O)CNC(=O)Nc1ccc2nc(-c3ccccc3)c(-c3ccccc3)cc2c1 [Example 30, (S)-1-(2,3-diphenylquinolin-6-yl)-3-(2-hydroxybutyl) urea]	< 100 nM	< 100 nM
CCC(O)CNC(=O)Nc1ccc2nc(C3=CCCCC3)c(-c3ccccc3F)cc2c1 (centres unmarked) [Example 32, 1-(2-(cyclohex-1-en-1-yl)-3-(2-fluorophenyl)quinolin-6-yl)-3-(2-hydroxybutyl) urea]	≤ 1000 nM	≤ 1000 nM
CCC(O)CNC(=O)Nc1ccc2nc(-c3ccccc3N(C)C)c(-c3ccccc3F)cc2c1 (centres unmarked) [Example 33, 1-(2-(2-(dimethylamino)phenyl)-3-(2-fluorophenyl)quinolin-6-yl)-3-(2-hydroxybutyl) urea]	< 100 nM	< 100 nM
CC[C@H](O)CNC(=O)Nc1ccc2nc(-c3ccccc3OC)c(-c3ccccc3F)cc2c1 [Example 36, (S)-1-(3-(2-fluorophenyl)-2-(2-methoxyphenyl)quinolin-6-yl)-3-(2-hydroxybutyl) urea]	< 100 nM	< 100 nM
CCCCNC(=O)Nc1ccc2nc(-c3ccccc3OC)c(-c3ccccc3F)cc2c1 [Example 37, 1-butyl-3-(3-(2-fluorophenyl)-2-(2-methoxyphenyl)quinolin-6-yl)urea]	< 100 nM	< 100 nM
CCC(O)CNC(=O)Nc1ccc2nc(-c3ccccn3)c(-c3ccccc3)cc2c1 (centres unmarked) [Example 38, 1-(2-hydroxybutyl)-3-(3-phenyl-2-(pyridin-2-yl)quinolin-6-yl)urea]	≤ 1000 nM	< 100 nM
CCC(O)CNC(=O)Nc1ccc2nc(C3CCCCC3)c(-c3ccccc3F)cc2c1 (centres unmarked) [Example 39, 1-(2-cyclohexyl-3-(2-fluorophenyl)quinolin-6-yl)-3-(2-hydroxybutyl) urea]	≤ 10000 nM	> 10000 nM
CCC(O)CNC(=O)Nc1ccc2nc(C3CC3)c(-c3ccccc3)cc2c1 (centres unmarked) [Example 40, 1-(2-cyclopropyl-3-phenylquinolin-6-yl)-3-(2-hydroxybutyl) urea]	≤ 10000 nM	≤ 1000 nM
CCC(O)CNC(=O)Nc1ccc2nc(-c3cccnc3)c(-c3ccccc3)cc2c1 (centres unmarked) [Example 41, 1-(2-hydroxybutyl)-3-(3-phenyl-2-(pyridin-3-yl)quinolin-6-yl)urea]	< 100 nM	< 100 nM
CCC(O)CNC(=O)Nc1ccc2nc(-c3cccnc3O)c(-c3cccnc3O)cc2c1 (centres unmarked) [Example 42, 1-(2,3-bis(2-hydroxypyridin-3-yl)quinolin-6-yl)-3-(2-hydroxybutyl) urea]	> 10000 nM	> 10000 nM
CCC(O)CNC(=O)Nc1ccc2nc(-c3cnn(C)c3)c(-c3ccccc3)cc2c1 (centres unmarked) [Example 43, 1-(2-hydroxybutyl)-3-(2-(1-methyl-1H-pyrazol-4-yl)-3-phenylquinolin-6-yl)urea]	≤ 1000 nM	< 100 nM
CCC(O)CNC(=O)Nc1ccc2nc(-c3cccc(F)c3)c(-c3ccccc3F)cc2c1 (centres unmarked) [Example 46, 1-(3-(2-fluorophenyl)-2-(3-fluorophenyl)quinolin-6-yl)-3-(2-hydroxybutyl) urea]	< 100 nM	< 100 nM

The next lines start with the values.

IC50 [1]	IC50 (human ACSS2)	Compound
< 100 nM	< 100 nM	CCCCNC(=O)Nc1ccc2nc(-c3ccccc3)c(-c3ccccc3F)cc2c1 [Example 16, 1-butyl-3-(3-(2-fluorophenyl)-2-phenylquinolin-6-yl)urea]
< 100 nM	< 100 nM	CCC(O)CNC(=O)Nc1ccc2nc(-c3ccccc3OC)c(-c3ccccc3F)cc2c1 (centres unmarked) [Example 18, 1-(3-(2-fluorophenyl)-2-(2-methoxyphenyl)quinolin-6-yl)-3-(2-hydroxybutyl) urea]
≤ 10000 nM	< 100 nM	CCC(O)CNC(=O)Nc1ccc2nc(-c3cccnc3)c(-c3cccnc3)cc2c1 (centres unmarked) [Example 19, 1-(2,3-di(pyridin-3-yl)quinolin-6-yl)-3-(2-hydroxybutyl) urea]
< 100 nM	< 100 nM	CCCCNC(=O)Nc1ccc2nc(-c3ccccc3)c(-c3ccccc3OC)cc2c1 [Example 23, 1-butyl-3-(3-(2-methoxyphenyl)-2-phenylquinolin-6-yl)urea]
< 100 nM	< 100 nM	CCC(O)CNC(=O)Nc1ccc2nc(-c3ccccc3F)c(-c3ccccc3OC)cc2c1 (centres unmarked) [Example 26, 1-(2-(2-fluorophenyl)-3-(2-methoxyphenyl)quinolin-6-yl)-3-(2-hydroxybutyl) urea]
≤ 10000 nM	≤ 1000 nM	CCC(O)CNC(=O)Nc1ccc2nc(-c3ccc(=O)[nH]c3)c(-c3ccc(=O)[nH]c3)cc2c1 (centres unmarked) [Example 27, 1-(2,3-bis(6-oxo-1,6-dihydropyridin-3-yl)quinolin-6-yl)-3-(2-hydroxybutyl) urea]
< 100 nM	< 100 nM	CCC(O)CNC(=O)Nc1ccc2nc(-c3cccnc3)c(-c3ccccc3F)cc2c1 (centres unmarked) [Example 31, 1-(3-(2-fluorophenyl)-2-(pyridin-3-yl)quinolin-6-yl)-3-(2-hydroxybutyl) urea]
< 100 nM	< 100 nM	CCC(O)CNC(=O)Nc1ccc2nc(-c3ccncc3)c(-c3ccccc3F)cc2c1 (centres unmarked) [Example 34, 1-(3-(2-fluorophenyl)-2-(pyridin-4-yl)quinolin-6-yl)-3-(2-hydroxybutyl) urea]
< 100 nM	< 100 nM	CC[C@@H](O)CNC(=O)Nc1ccc2nc(-c3ccccc3OC)c(-c3ccccc3F)cc2c1 [Example 35, (R)-1-(3-(2-fluorophenyl)-2-(2-methoxyphenyl)quinolin-6-yl)-3-(2-hydroxybutyl) urea]
< 100 nM	< 100 nM	CCC(CNC(=O)Nc1ccc2nc(-c3ccccc3)c(-c3ccccc3F)cc2c1)OC (centres unmarked) [Example 44, 1-(3-(2-fluorophenyl)-2-phenylquinolin-6-yl)-3-(2-methoxybutyl) urea]
< 100 nM	< 100 nM	CCC(F)(F)CNC(=O)Nc1ccc2nc(-c3ccccc3)c(-c3ccccc3F)cc2c1 [Example 45, 1-(2,2-Difluorobutyl)-3-(3-(2-fluorophenyl)-2-phenylquinolin-6-yl)urea]
